Experimental findings from US8436178B2, “Imidazoquinolines with immuno-modulating properties” (AstraZeneca AB, priority 2007, dated 2013) are described below.

For orientation: EC50 means the concentration giving half of the maximal effect. A low value points to a more potent agent.

The target of one experiment is T1, human TLR7 (Homo sapiens, UniProt Q9NYK1).
T1 construct: expressed in transfected cells; host or cells: HEK293 cell line stably expressing the pNiFty2-SEAP reporter plasmid; TLR7 in pUNO vector, blasticidin selection
T1 sequence (Q9NYK1 27-1049): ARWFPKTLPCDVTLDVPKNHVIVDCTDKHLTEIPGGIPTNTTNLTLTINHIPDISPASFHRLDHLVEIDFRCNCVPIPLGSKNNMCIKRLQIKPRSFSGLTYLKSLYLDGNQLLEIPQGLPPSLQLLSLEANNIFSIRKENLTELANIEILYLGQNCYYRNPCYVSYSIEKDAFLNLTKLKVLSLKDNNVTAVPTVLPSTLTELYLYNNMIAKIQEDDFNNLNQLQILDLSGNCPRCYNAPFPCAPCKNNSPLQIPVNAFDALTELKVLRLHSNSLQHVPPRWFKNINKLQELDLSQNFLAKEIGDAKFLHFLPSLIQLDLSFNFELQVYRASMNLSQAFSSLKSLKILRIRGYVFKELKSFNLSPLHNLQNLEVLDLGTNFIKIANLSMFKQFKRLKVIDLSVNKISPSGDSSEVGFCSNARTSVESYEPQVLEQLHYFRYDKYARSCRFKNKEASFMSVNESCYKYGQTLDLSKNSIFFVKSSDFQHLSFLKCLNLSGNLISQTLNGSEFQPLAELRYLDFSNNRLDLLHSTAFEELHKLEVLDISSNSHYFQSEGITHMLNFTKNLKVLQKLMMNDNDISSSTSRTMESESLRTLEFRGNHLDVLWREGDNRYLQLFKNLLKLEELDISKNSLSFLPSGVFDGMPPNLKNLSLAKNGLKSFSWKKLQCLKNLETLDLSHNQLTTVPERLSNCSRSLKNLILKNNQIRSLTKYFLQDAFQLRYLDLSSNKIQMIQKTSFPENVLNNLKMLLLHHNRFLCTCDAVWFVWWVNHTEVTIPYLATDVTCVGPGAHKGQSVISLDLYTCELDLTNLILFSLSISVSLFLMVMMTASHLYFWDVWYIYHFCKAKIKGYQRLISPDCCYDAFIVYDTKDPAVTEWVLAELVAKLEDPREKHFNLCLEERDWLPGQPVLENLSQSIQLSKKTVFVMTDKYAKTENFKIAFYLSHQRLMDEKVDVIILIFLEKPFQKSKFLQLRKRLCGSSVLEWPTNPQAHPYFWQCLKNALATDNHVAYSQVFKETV
The experiment in a line: Human TLR7 assay (SEAP reporter in HEK293 cells). The class given is cell-based. Particulars: SEAP induction in HEK293 cells expressing human TLR7, overnight incubation at 37° C., 0.1% DMSO.

Another experiment relates to Male Brown Norway rats. The experiment in a line: Antigen-induced pulmonary inflammation in a rat asthma model (OVA challenge, BALF). The class given is in vivo. Conditions: BALF 48 h after challenge, Mean ± SE (n = 8). The source says: Rats were sensitised and challenged to produce allergic airway inflammation in a similar manner to that described by Underwood et al (British Journal of Pharmacology 2002; 137: 263-275, 2002). Male Brown Norway rats were sensitized subcutaneously with ovalbumin (OVA) and aluminum hydroxide on day 0, and challenged with aerosolized OVA solution on day14.

Where [1] appears, read: 0.1 mg/kg intratracheally 24 h before and 24 h after OVA-challenge.
Setting [2] is: 1 mg/kg intratracheally 24 h before and 24 h after OVA-challenge.

Excerpt for human TLR7: The most common variant sequence of human TLR7 (represented by the EMBL sequence AF240467) was cloned into the mammalian cell expression vector pUNO and transfected into a HEK293 cell line already stably expressing the pNiFty2-SEAP reporter plasmid; integration of the reporter gene was maintained by selection with the antibiotic zeocin. Transfectants with stable TLR7 expression were selected using the antibiotic blasticidin. In this reporter cell-line, expression of secreted alkaline phosphatase (SEAP) is controlled by an NFkB/ELAM-1 composite promoter comprising five NFkB sites combined with the proximal ELAM-1 promoter. TLR signaling leads to the translocation of NFkB and activation of the promoter results in expression of the SEAP gene. TLR7-specific activation was assessed by determining the level of SEAP produced following overnight incubation of the cells at 37° C. with the standard compound in the presence of 0.1% (v/v) dimethylsulfoxide (DMSO). Concentration dependent induction of SEAP production by compounds was expressed as the concentration of compound which produced half of the maximal level of SEAP induction for that compound (pEC50).

In the case of `CCCCc1nc2c(N)nc3ccccc3c2n1CCCN(Cc1ccc(CC(=O)OC)cc1)C(=O)CN(C)C` [Example 3, Methyl 2-(4-((N-(3-(4-amino-2-butyl-1H-imidazo[4,5-c]quinolin-1-yl)propyl)-2-(dimethylamino)acetamido)methyl)phenyl)acetate], the EC50 on human TLR7 is 79.4 nM. In addition, in the experiment with Male Brown Norway rats (setting [1]), the “Eosinophiles (cells/BALF)” value was found to be 67.2 ± 16.3 cells/BALF, the “IL-5 (pg/ml BALF)” value is given as 18.0 ± 8.7 pg/ml BALF and the “IL-13 (pg/ml BALF)” value is recorded as under 4.9 pg/ml BALF. Moreover, in the experiment with Male Brown Norway rats (setting [2]), the “Eosinophiles (cells/BALF)” value amounted to 36.2 ± 11.3 cells/BALF, the “IL-5 (pg/ml BALF)” value is listed as 11.3 ± 7.5 pg/ml BALF and the “IL-13 (pg/ml BALF)” value is reported as under 4.9 pg/ml BALF. The compound `CCCCc1nc2c(N)nc3ccccc3c2n1CCCN(Cc1ccc(CC(=O)OC)cc1)C(=O)CN1CCCN(S(C)(=O)=O)CC1` [Example 68, Methyl 2-(4-((N-(3-(4-amino-2-butyl-1H-imidazo[4,5-c]quinolin-1-yl)propyl)-2-(4-(methylsulfonyl)-1,4-diazepan-1-yl)acetamido)methyl)phenyl)acetate] showed an EC50 on human TLR7 of 501 nM. Still for that read-out and setting: then `CCCCc1nc2c(N)nc3ccccc3c2n1CCCN(Cc1ccc(CC(=O)OC)cc1)C(=O)CN(C)C1CCN(C(C)=O)CC1` [Example 69, Methyl 2-(4-((2-((1-acetylpiperidin-4-yl)(methyl)amino)-N-(3-(4-amino-2-butyl-1H-imidazo[4,5-c]quinolin-1-yl)propyl)acetamido)methyl)phenyl)acetate], with 398 nM; and `COCCc1nc2c(N)nc3ccccc3c2n1CCCN(Cc1ccc(CC(=O)OC)cc1)C(=O)CN1CCN(C)CC1` [Example 70, Methyl 2-(4-((N-(3-(4-amino-2-(2-methoxyethyl)-1H-imidazo[4,5-c]quinolin-1-yl)propyl)-2-(4-methylpiperazin-1-yl)acetamido)methyl)phenyl)acetate], with 398 nM; and `COCCc1nc2c(N)nc3ccccc3c2n1CCCN(Cc1ccc(CC(=O)OC)cc1)C(=O)CN1CCN(CCOC)CC1` [Example 71, Methyl 2-(4-((N-(3-(4-amino-2-(2-methoxyethyl)-1H-imidazo[4,5-c]quinolin-1-yl)propyl)-2-(4-(2-methoxyethyl)piperazin-1-yl)acetamido)methyl)phenyl)acetate], with 200 nM.

`COCCc1nc2c(N)nc3ccccc3c2n1CCCN(Cc1cccc(CC(=O)OC)c1)C(=O)CN1CCN(C)CC1` [Example 72, Methyl 2-(3-((N-(3-(4-amino-2-(2-methoxyethyl)-1H-imidazo[4,5-c]quinolin-1-yl)propyl)-2-(4-methylpiperazin-1-yl)acetamido)methyl)phenyl)acetate] showed an EC50 at human TLR7 of 501 nM.

In turn, `COCCc1nc2c(N)nc3ccccc3c2n1CCCN(Cc1cccc(CC(=O)OC)c1)C(=O)CN1CCN(CCOC)CC1` [Example 73, Methyl 2-(3-((N-(3-(4-amino-2-(2-methoxyethyl)-1H-imidazo[4,5-c]quinolin-1-yl)propyl)-2-(4-(2-methoxyethyl)piperazin-1-yl)acetamido)methyl)phenyl)acetate] gave an EC50 at human TLR7 of 501 nM.
